Measurements reported in patent publication US11312719B2, “9-substituted amino triazolo quinazoline derivatives as adenosine receptor antagonists, pharmaceutical compositions and their use” (Merck Sharp & Dohme Corp., priority 2018, dated 2022).

Tests used:
[1] = molecular target: human A2b adenosine receptor (Homo sapiens (Human), UniProt P29275); test: A2b radioligand filtration binding assay; details: for IC50: membranes from HEK293 cells expressing human A2b receptor
Protocol: Measurement of A2b Binding Affinity
The reported affinity of the compounds of the invention for the human A2b adenosine receptor was determined experimentally using a radioligand filtration binding assay. This assay measures the amount of binding of a tritiated proprietary A2b receptor antagonist, in the presence and absence of a compound of the invention, to membranes made from HEK293 cells recombinantly expressing the human A2b adenosine receptor (Perkin Elmer, Cat. No. ES-013-C).
148 μL (135 μg/mL) membranes and 2 μL test compounds were transferred to individual wells of a 96-well polypropylene assay plate and incubated for 15 to 30 minutes at room temperature with agitation. Tritiated radioligand was diluted to a concentration of 14 nM in assay buffer (phosphate buffered saline without Magnesium and Calcium, pH 7.4; GE Healthcare Life Sciences, Cat. No. SH30256.01) and then 50 μL of the solution were transferred to each well of the assay plate. To define total and non-specific binding, wells containing 1% DMSO and 20 μM N-ethylcarboxamidoadenosine (Tocris Bioscience, Cat. No. 1691) respectively, were also included. The wells of the assay plate were incubated at room temperature for 60 minutes with agitation, then filtered using a FilterMate Harvester® (Perkin Elmer) or similar equipment through a UniFilter-96® PEI coated plate (Perkin Elmer Cat. No. 6005274 or 6005277). Filtering was achieved by aspirating the contents of the assay plate for 5 seconds, then washing and aspirating the contents three times with ice-cooled wash buffer (assay buffer supplemented with 0.0025% Brij58) and allowing the vacuum manifold to dry the plate for 30 seconds. The filter plate was incubated for at least 1 hour at 55° C. and allowed to dry. The bottom of the filter plate was then sealed with backing tape. 40 μL Ultima Gold™ (Perkin Elmer, Cat. No. 6013329) was added to each well of the filter plate and the top of the plate was sealed with TopSeal-A PLUS® clear plate seal (Perkin Elmer, Cat. No. 6050185). The plates were then incubated for at least 20 minutes, and then the amount of radioactivity remaining in each well was determined using a TopCount® (Perkin Elmer) scintillation counter. After normalization to total and non-specific binding, the percent effect at each compound concentration was calculated. The plot of percent effect versus the log of compound concentration was analyzed electronically using a 4-parameter logistic fit based on the Levenberg-Marquardt algorithm to generate IC50 values.

[2] = molecular target: human A2a adenosine receptor (Homo sapiens (Human), UniProt P29274); test: A2a receptor affinity radioligand binding assay ([3H] SCH58261); details: membranes from HEK293 or CHO cells expressing human A2a receptor
Protocol: The A2a receptor affinity binding assay measured the amount of binding of a tritiated ligand with high affinity for the A2a adenosine receptor to membranes made from HEK293 or CHO cells recombinantly expressing the human A2a adenosine receptor, in the presence of varying concentrations of a compound of the invention.
Measurement of A2a Binding Affinity Using Radioligand Binding
148 μL (5 μg/mL) membranes (Perkin Elmer, Cat. No. RBHA2aM400UA) and 2 μL compounds of the invention to be tested (test compound) were transferred to individual wells of a 96-well polypropylene assay plate and incubated for 15 to 30 minutes at room temperature. [^3H] SCH58261 ((7-(2-phenylethyl)-5-amino-2-(2-furyl)-pyrazolo-[4,3-e]-1,2,4-triazolo[1,5-c]pyrimidine)) was diluted in assay buffer (50 mM Tris pH 7.4, 10 mM MgCl2, 0.005% Tween20) to a concentration of 4 nM and 50 μL transferred to each well of the assay plate. To define total and non-specific binding, wells containing 1% DMSO and 1 μM ZM241385 (Tocris Bioscience, Cat. No. 1036) respectively, were also included. The assay plate was incubated at room temperature for 60 minutes with agitation. Using a FilterMate Harvester® (Perkin Elmer), the contents of the assay plate were filtered through a UniFilter-96® PEI coated plate (Perkin Elmer Cat. No. 6005274 or 6005277). Filtering was achieved by aspirating the contents of the assay plate for 5 seconds, then washing and aspirating the contents three times with ice-cooled wash buffer (50 mM Tris-HCl pH 7.4, 150 mM NaCl) and allowing the vacuum manifold to dry the plate for 30 seconds. The filter plate was incubated for at least 1 hour at 55° C., and allowed to dry. The bottom of the filter plate was sealed with backing tape. 40 μL Ultima Gold™ (Perkin Elmer, Cat. No. 6013329) was added to each well of the filter plate and the top of the plate was sealed with TopSeal-A PLUS® clear plate seal (Perkin Elmer, Cat. No. 6050185). The plate was incubated for at least 20 minutes, and then the amount of radioactivity remaining in each well was determined using a TopCount® (Perkin Elmer) scintillation counter. After normalization to total and non-specific binding, the percent effect at each compound concentration was calculated. The plot of percent effect versus the log of compound concentration was analyzed electronically using a 4-parameter logistic fit based on the Levenberg-Marquardt algorithm to generate IC50 values.

human A2a adenosine receptor, sequence (P29274 whole entry): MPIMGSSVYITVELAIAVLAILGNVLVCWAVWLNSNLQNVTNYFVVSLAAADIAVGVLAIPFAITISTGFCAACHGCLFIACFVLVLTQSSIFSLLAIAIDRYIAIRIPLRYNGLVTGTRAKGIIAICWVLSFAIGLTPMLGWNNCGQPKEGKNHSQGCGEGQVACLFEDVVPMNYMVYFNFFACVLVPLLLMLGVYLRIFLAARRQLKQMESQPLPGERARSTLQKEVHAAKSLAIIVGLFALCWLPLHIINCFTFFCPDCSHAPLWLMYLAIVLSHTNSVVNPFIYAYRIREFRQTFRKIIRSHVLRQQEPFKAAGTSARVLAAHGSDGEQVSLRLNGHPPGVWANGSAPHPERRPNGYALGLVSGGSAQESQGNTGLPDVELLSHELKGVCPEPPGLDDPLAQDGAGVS
human A2b adenosine receptor, sequence (P29275 whole entry): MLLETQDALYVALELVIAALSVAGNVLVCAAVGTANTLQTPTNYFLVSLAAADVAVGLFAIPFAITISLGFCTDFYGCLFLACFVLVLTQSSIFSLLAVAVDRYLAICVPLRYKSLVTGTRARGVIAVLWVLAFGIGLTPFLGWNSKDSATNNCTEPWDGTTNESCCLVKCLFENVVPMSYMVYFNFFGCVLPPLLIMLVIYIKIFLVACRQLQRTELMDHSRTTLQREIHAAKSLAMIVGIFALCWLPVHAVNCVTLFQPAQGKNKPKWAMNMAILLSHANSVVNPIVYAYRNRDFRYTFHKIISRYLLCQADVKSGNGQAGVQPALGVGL

Structure (SMILES) | IC50 [1] [µM] | IC50 [2] [µM] | A2B binding % Inh. @ 10000 nM [1] [% Inh.]
COc1cc(F)cc2c1nc(N)n1nc([C@@H]3C[C@@H](F)CN(c4cnn(CC(C)(C)O)c4)C3)nc21 (single isomer, unassigned) [Example 74, 1-(4-((3R,5R or 3S,5S)-3-(5-amino-9-fluoro-7-methoxy-[1,2,4]triazolo[1,5-c]quinazolin-2-yl)-5-fluoropiperidin-1-yl)-1H-pyrazol-1-yl)-2-methylpropan-2-ol] | 0.153 | 0.0009 | –
COc1cc(F)cc2c1nc(N)n1nc([C@H]3C[C@H](F)CN(c4cnn(CC(C)(C)O)c4)C3)nc21 (single isomer, unassigned) [Example 75, 1-(4-((3S,5S or 3R,5R)-3-(5-amino-9-fluoro-7-methoxy-[1,2,4]triazolo[1,5-c]quinazolin-2-yl)-5-fluoropiperidin-1-yl)-1H-pyrazol-1-yl)-2-methylpropan-2-ol] | – | 0.0569 | 54
COc1cc(F)cc2c1nc(N)n1nc(C3CC(F)CN(c4cn(CC(C)(C)O)nc4C)C3)nc21 (single isomer, unassigned) [Example 76, 1-(4-((3R,5R or 3S,5S)-3-(5-amino-9-fluoro-7-methoxy-[1,2,4]triazolo[1,5-c]quinazolin-2-yl)-5-fluoropiperidin-1-yl)-3-methyl-1H-pyrazol-1-yl)-2-methylpropan-2-ol] | – | 0.256 | 34
COc1cc(F)cc2c1nc(N)n1nc(C3CC(F)CN(c4cn(CC(C)(C)O)nc4C)C3)nc21 (single isomer, unassigned) [Example 77, 1-(4-((3S,5S or 3R,5R)-3-(5-amino-9-fluoro-7-methoxy-[1,2,4]triazolo[1,5-c]quinazolin-2-yl)-5-fluoropiperidin-1-yl)-3-methyl-1H-pyrazol-1-yl)-2-methylpropan-2-ol] | 0.108 | 0.0004 | –
COc1cc(F)cc2c1nc(N)n1nc(C3CC(F)CN(c4cnn(CC5(O)CCC5)c4)C3)nc21 (single isomer, unassigned) [Example 78, 1-(4-((3R,5R or 3S,5S)-3-(5-amino-9-fluoro-7-methoxy-[1,2,4]triazolo[1,5-c]quinazolin-2-yl)-5-fluoropiperidin-1-yl)-1H-pyrazol-1-yl)methyl)cyclobutan-1-ol] | 0.234 | 0.0009 | –
COc1cc(F)cc2c1nc(N)n1nc(C3CC(F)CN(c4cnn(CC5(O)CCC5)c4)C3)nc21 (single isomer, unassigned) [Example 79, 1-(4-((3S,5S or 3R,5R)-3-(5-amino-9-fluoro-7-methoxy-[1,2,4]triazolo[1,5-c]quinazolin-2-yl)-5-fluoropiperidin-1-yl)-1H-pyrazol-1-yl)methyl)cyclobutan-1-ol] | 3.14 | 0.016 | –
COc1cc2nc(N)n3nc([C@@H]4C[C@@H](F)CN(c5cnn(CC(C)(C)O)c5)C4)nc3c2cc1F (single isomer, unassigned) [Example 80, 1-(4-((3R,5R or 3S,5S)-3-(5-amino-9-fluoro-8-methoxy-[1,2,4]triazolo[1,5-c]quinazolin-2-yl)-5-fluoropiperidin-1-yl)-1H-pyrazol-1-yl)-2-methylpropan-2-ol] | 0.405 | 0.0116 | –
COc1cc2nc(N)n3nc([C@H]4C[C@H](F)CN(c5cnn(CC(C)(C)O)c5)C4)nc3c2cc1F (single isomer, unassigned) [Example 81, 1-(4-((3S,5S or 3R,5R)-3-(5-amino-9-fluoro-8-methoxy-[1,2,4]triazolo[1,5-c]quinazolin-2-yl)-5-fluoropiperidin-1-yl)-1H-pyrazol-1-yl)-2-methylpropan-2-ol] | 6.58 | 0.121 | –
COc1cc2nc(N)n3nc([C@@H]4CCCN(c5cnn([C@@H]6CCC[C@@]6(C)O)c5)C4)nc3c2cc1F (single isomer, unassigned) [Example 82, (1R or 1S,2R or 2S)-2-(4-((R)-3-(5-amino-9-fluoro-8-methoxy-[1,2,4]triazolo[1,5-c]quinazolin-2-yl)piperidin-1-yl)-1H-pyrazol-1-yl)-1-methylcyclopentan-1-ol] | 0.063 | 0.0049 | –
COc1cc2nc(N)n3nc([C@@H]4CCCN(c5cnn([C@H]6CCC[C@]6(C)O)c5)C4)nc3c2cc1F (single isomer, unassigned) [Example 83, (1S or 1R,2S or 2R)-2-(4-((R)-3-(5-amino-9-fluoro-8-methoxy-[1,2,4]triazolo[1,5-c]quinazolin-2-yl)piperidin-1-yl)-1H-pyrazol-1-yl)-1-methylcyclopentan-1-ol] | 0.113 | 0.0027 | –
COc1cc2nc(N)n3nc([C@@H]4CCCN(c5cnn(C6CCCC6O)c5)C4)nc3c2cc1F (single isomer, unassigned) [Example 84, (1R or 1S,2R or 2S)-2-(4-((R)-3-(5-amino-9-fluoro-8-methoxy-[1,2,4]triazolo[1,5-c]quinazolin-2-yl)piperidin-1-yl)-1H-pyrazol-1-yl)cyclopentan-1-ol] | 0.117 | 0.0023 | –
COc1cc2nc(N)n3nc([C@@H]4CCCN(c5cnn(C6CCCC6O)c5)C4)nc3c2cc1F (single isomer, unassigned) [Example 85, (1S or 1R,2S or 2R)-2-(4-((R)-3-(5-amino-9-fluoro-8-methoxy-[1,2,4]triazolo[1,5-c]quinazolin-2-yl)piperidin-1-yl)-1H-pyrazol-1-yl)cyclopentan-1-ol] | 0.192 | 0.0052 | –
COc1cc(F)cc2c1nc(N)n1nc([C@@H]3CCCN(c4cn(C(C)C(C)(C)O)nc4C)C3)nc21 (single isomer, unassigned) [Example 86, (S or R)-3-(4-((R)-3-(5-amino-9-fluoro-7-methoxy-[1,2,4]triazolo[1,5-c]quinazolin-2-yl)piperidin-1-yl)-3-methyl-1H-pyrazol-1-yl)-2-methylbutan-2-ol] | 0.165 | 0.0003 | –
COc1cc(F)cc2c1nc(N)n1nc([C@@H]3CCCN(c4cn(C(C)C(C)(C)O)nc4C)C3)nc21 (single isomer, unassigned) [Example 87, (R or S)-3-(4-((R)-3-(5-amino-9-fluoro-7-methoxy-[1,2,4]triazolo[1,5-c]quinazolin-2-yl)piperidin-1-yl)-3-methyl-1H-pyrazol-1-yl)-2-methylbutan-2-ol] | 0.134 | 0.0004 | –
COc1cc2nc(N)n3nc(C4CCC(C)N(c5cnn(C6CCCC6O)c5)C4)nc3c2cc1F (single isomer, unassigned) [Example 88, (1R or 1S,2R or 2S)-2-(4-((2S,5R or 2R,5S)-5-(5-amino-9-fluoro-8-methoxy-[1,2,4]triazolo[1,5-c]quinazolin-2-yl)-2-methylpiperidin-1-yl)-1H-pyrazol-1-yl)cyclopentan-1-ol] | 0.0018 | 0.0001 | –
